Assay results as given in article PMC13195669, “GPR3 Ligands Discovered through Combined Virtual and Conformational Biosensor-Based Screening” (Journal of the American Chemical Society, 2026).

Key:
S1P receptor 1 (S1PR1) = target: T1, S1P receptor 1 (S1PR1) (Homo sapiens, UniProt P21453); assay: cAMP GloSensor 22F, agonist-stimulated S1PR1; assay type: cell-based; conditions: preincubation with 100 μM or 10 μM; 10 µM forskolin
T1 construct: expressed in transfected cells; host or cells: HEK293A, transient
T1 sequence (P21453 whole entry, species assumed): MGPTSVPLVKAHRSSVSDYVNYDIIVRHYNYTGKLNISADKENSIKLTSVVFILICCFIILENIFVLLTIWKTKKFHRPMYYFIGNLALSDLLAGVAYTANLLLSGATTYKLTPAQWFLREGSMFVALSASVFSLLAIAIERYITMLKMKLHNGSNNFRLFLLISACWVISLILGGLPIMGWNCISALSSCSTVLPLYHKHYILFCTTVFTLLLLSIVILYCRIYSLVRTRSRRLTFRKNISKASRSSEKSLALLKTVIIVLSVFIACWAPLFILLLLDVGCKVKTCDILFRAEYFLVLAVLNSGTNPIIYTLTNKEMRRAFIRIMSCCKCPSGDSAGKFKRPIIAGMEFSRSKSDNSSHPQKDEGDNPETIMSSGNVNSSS
Procedure: (§1) Next, we used the classical cAMP GloSensor technology to assess the target selectivity profile of 33. […] In addition, we tested the effects of 33 on cAMP changes mediated by agonist-stimulated GPCRs phylogenetically close to GPR3 and coupling to Gs or Gi/o proteins.
(§2) BRET-based GPCR conformational sensor experiments
(§3) Cells expressing the conformational GPCR biosensors were grown for 24 h (stable cells) or 48 h (transiently transfected cells) in white 96-well plates and washed with 100 µl of HBSS. After washing, cells were incubated for 2 minutes with a 1/1000 solution of the furimazine stock solution (Promega; cat. no. N1662). Three baseline BRET reads were recorded and averaged prior to the addition of serial dilutions of ligands or veh icle control and subsequent BRET reads. […] BRE T donor emission was quantified with a 470/80 nm monochromator. […] Experiments were carried out using a CLARIOstar plate reader.
(§4) FRET- and BRET-based measurements of cAMP levels and Gs dissociation/reassociation Transfected cells grown in black 96-well plates were washed twice with 100 µl of HBSS 48 h after transfection and incubated with HBSS. […] Three baseline FRET/BRET reads were recorded and averaged prior to the addition of serial dilutions of ligands or vehicle control and sub-sequent FRET/BRET reads. […] FRET donor emission was quantified with a 480/10 nm filter. […]
(§5) Luminescence measurement using the cAMP GloSensor™ 22F […]

LPA receptor 1 (LPAR1) = target: T2, LPA receptor 1 (LPAR1) (Homo sapiens, UniProt Q92633); assay: cAMP GloSensor 22F, agonist-stimulated LPAR1; assay type: cell-based; conditions: preincubation with 100 μM or 10 μM; 10 µM forskolin
T2 construct: expressed in transfected cells; host or cells: HEK293A, transient
T2 sequence (Q92633 whole entry, species assumed): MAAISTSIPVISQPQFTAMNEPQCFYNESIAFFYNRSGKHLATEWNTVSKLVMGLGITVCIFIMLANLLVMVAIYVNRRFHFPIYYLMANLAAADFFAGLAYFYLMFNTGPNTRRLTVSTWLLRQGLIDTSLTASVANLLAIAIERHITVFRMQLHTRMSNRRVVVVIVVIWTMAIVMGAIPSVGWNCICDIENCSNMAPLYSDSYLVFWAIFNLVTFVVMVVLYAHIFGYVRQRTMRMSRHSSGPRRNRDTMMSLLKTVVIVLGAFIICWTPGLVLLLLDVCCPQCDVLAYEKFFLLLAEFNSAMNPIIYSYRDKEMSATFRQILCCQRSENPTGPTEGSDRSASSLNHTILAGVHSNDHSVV
Procedure: as §1, §2, §3, §4, §5

[1] = system: GPR3 mutant (bulky tryptophan residues in extracellular loop 2); assay: GPR3 conformational biosensor with tryptophan insertions in extracellular loop 2; assay type: cell-based, human; conditions: wildtype vs mutant biosensor; transiently transfected HEK293A
Source text: To develop a hypothesis for the cause of the significant loss in efficacy from VH1 to 33, we computationally predicted the binding poses of both molecules in GPR3 (Figure a). […] In contrast, the cyclopropyl ring of 33 is still buried in the receptor’s transmembrane core. […] We also challenged this binding model of 33 with another GPR3 biosensor variant which harbors the T^3.37A point mutation in transmembrane helix 3. According to an alternative predicted pose of 33 obtained with Boltz-2 (c.f., SI – Materials and Methods section), this mutation should hamper 33 binding to GPR3.
5 Proposed binding poses of VH1 and 33. […]
as §3, with “After washing, cells were incubated for 2 minutes with a 1/1000 solution of the furimazine stock solution (Promega; cat. no. N1662).” left out
FRET- and BRET-based measurements of cAMP levels and Gs dissociation/reassociation Transfected cells grown in black 96-well plates were washed twice with 100 µl of HBSS 48 h after transfection and incubated with HBSS. […] FRET donor emission was quantified with a 480/10 nm filter. […]

Compound | effect on agonist-induced cAMP change mediated by S1PR1 (S1P receptor 1 (S1PR1)) | effect on agonist-induced cAMP change mediated by LPAR1 (LPA receptor 1 (LPAR1)) | effect of extracellular loop 2 tryptophan insertions on concentration-response [1]
N=c1n(Cc2ccccc2)c2ccccc2n1CC1CC1 [compound 33] | neither 100 μM nor 10 μM 33 significantly altered | neither 100 μM nor 10 μM 33 significantly altered | not affected by these modifications
N=c1n(Cc2ccccc2)c2ccccc2n1CC(O)COc1ccc(Cl)cc1 (stereo not shown) [compound 52] | – | – | right-shifted
